Assay results: publication PMC3538728 (PLoS ONE, 2013)
Several values for one entry are separate records, joined by “and”; a condition that tells them apart may be missing. Equal values may be shown once. Read-outs that look alike come from different tables or passages of the source.

Biological target: T1, γ-secretase (Homo sapiens, UniProt P49768)
T1 construct: γ-Secretase is composed of four subunits: Aph1, Pen2, glycosylated nicastrin, and endo-proteolyzed presenilin as the catalytic core; endogenous in cells; host or cells: HeLa S3 (ATCC CCL-2.2)
Experiment: Aβ 1–40 secretion from HeLa cells in the presence of DAPT (sandwich ELISA), dose-response fits
Format: cell-based
Conditions: for EC50: read-out: Activation EC50; for IC50: read-out: Inhibition IC50; for Maximal Activity that can be achieved by transfection (Aβ 1-40 secreted): HeLa transfected with cDNAwtC99
From the text: HeLa cells have been transfected using Lipofectamine LTX™ reagent following the manufacturer instructions. The transfection protocol and concentration of pSG5-cDNAwtC99 plasmid have been optimized to achieve desired assay sensitivity, a gradual increase in the substrate expression level, and a smooth transition from biphasic to the standard dose-response curves (Figs. 2–3). Initially concentration of pSG5-cDNAwtC99 plasmid have been optimized by western blots using anti-flag αM2 monoclonal antibody as described in our previous study. The cells were transfected in 24-well plates. The day before transfection the cells were trypsinized and counted. About 0.85×10^5 cells were seeded per well in 0.5 ml of complete growth medium to achieve about 75% confluent cultures on the day of transfection. Before the transfection old medium was removed and replaced with fresh 0.5 ml of complete growth medium. For transfection 5X DNA concentration was diluted in 500 µl of Opti-MEM®I Reduced Serum Media and mixed with 0.7 µl of Lipofectamine LTX™ Reagent. The solution was gently mixed and incubated for 30 minutes at room temperature to form DNA- Lipofectamine LTX™ Reagent complexes. Following the 30 min incubation, 100 µl of the DNA- Lipofectamine LTX™ Reagent complexes was added directly to each well containing cells and mixed gently by rocking the plate back and forth. The cells were incubated at 37°C in a CO2 incubator for 18 hours.
Fresh medium was added 18 hours after the transfection (0.5 ml per well), to prepare the cells for incubation with DAPT [18], [51]. Different concentrations of DAPT were prepared in DMSO, and added to the cells so that the final DMSO concentration in the culture was 0.1% (v/v). DMSO vehicle represents 0 nM DAPT. The cells were incubated with DAPT at given concentrations for 15 hours.
The assay linear response is in the range from 6–125 pM of Aβ 1–40. The assays were performed by closely following the manufacturer instructions. […] Each well was filled with 50 µl of the antibody conjugate solution and 50 µl of sample. The Aβ 1–40 standards were supplied by the manufacturer and prepared in parallel with other samples. All of the prepared wells were wrapped in aluminum foil and incubated overnight at 4°C with gentle mixing. The next day each well was washed five times with 300 µl of wash solution. After each […] wash, the wash solution was poured out and the wells were dried by tapping the plates on an absorbing paper. Washed wells were filled with 100 µl of the enzyme conjugate solution, covered, and incubated for 30 min at room temperature with shaking. The washing procedure was repeated once again to remove excess of the enzyme-conjugate. Next 100 µl of the substrate solution was added in each well in dark, and kept for 30 minutes covered at room temperature. The reaction was quenched by adding 50 µl of stop solution to each well, and within 15 min the signal intensity was read by measuring absorption at 450 nm.
All experimental results were analyzed using MicroCal Origin 7.0 program, nonlinear regressions, and equations that represent specific mechanism. All results are reported as the best fit value ± standard error with two-sigma confidence intervals shown in square brackets (i.e. x±y [p, q]). Briefly, the standard error indicates random errors (i.e. precision) for each method, while the two sigma confidence intervals indicate the ability of given experimental setup to provide information about specific best-fit parameter. The random error for presented experiments is low, as indicated by a low scatter from the best fit values. The sharp confidence intervals can be obtained by taking a large number of independent data points that cover all segments that define the measured functions. […]

[1] = Aβ 1-40 secreted, untransfected HeLa cells, eqn. 1, six free fit parameters
[2] = Aβ 1-40 secretion, untransfected HeLa cells, eqn. 1, six free fit parameters
[3] = HeLa, 0 ng/mL pSG5-cDNAwtC99, eqn. 1
[4] = HeLa, 15 ng/mL pSG5-cDNAwtC99, eqn. 1
[5] = HeLa, 25 ng/mL pSG5-cDNAwtC99, eqn. 1
[6] = HeLa, 61 ng/mL pSG5-cDNAwtC99, eqn. 1
[7] = HeLa, 92 ng/mL pSG5-cDNAwtC99, eqn. 1

T1 sequence (Q9NZ42 whole entry, other chains not shown): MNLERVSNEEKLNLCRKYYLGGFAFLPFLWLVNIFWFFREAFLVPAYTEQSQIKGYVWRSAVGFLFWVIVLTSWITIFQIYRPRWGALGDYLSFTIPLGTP
T1 sequence (Q92542 34-709, other chains not shown, further chain): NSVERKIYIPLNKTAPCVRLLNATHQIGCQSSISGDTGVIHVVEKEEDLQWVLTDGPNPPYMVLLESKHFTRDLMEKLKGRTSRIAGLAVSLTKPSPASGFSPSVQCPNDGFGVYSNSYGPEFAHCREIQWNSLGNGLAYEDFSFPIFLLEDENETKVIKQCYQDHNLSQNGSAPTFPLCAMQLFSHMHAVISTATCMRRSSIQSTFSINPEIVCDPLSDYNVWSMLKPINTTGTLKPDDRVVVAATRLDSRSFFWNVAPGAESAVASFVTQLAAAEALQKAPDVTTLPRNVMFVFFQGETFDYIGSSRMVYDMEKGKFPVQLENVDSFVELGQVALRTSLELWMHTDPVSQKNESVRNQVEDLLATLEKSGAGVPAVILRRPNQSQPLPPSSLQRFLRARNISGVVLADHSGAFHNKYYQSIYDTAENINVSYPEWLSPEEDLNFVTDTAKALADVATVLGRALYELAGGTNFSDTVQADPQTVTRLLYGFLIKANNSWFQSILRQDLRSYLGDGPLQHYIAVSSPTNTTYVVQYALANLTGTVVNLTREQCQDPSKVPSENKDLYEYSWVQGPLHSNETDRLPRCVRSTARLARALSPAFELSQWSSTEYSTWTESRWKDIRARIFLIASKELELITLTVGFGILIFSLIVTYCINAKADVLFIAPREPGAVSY
T1 sequence (Q96BI3 whole entry, other chains not shown, further chain): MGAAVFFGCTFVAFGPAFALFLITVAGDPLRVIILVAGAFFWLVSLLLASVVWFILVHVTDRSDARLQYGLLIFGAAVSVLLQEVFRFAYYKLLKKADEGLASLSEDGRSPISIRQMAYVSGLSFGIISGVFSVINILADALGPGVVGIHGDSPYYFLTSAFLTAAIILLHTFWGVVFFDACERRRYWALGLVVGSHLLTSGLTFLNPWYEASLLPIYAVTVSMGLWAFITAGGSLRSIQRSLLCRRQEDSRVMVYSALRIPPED

C[C@H](NC(=O)Cc1cc(F)cc(F)c1)C(=O)N[C@H](C(=O)OC(C)(C)C)c1ccccc1 [DAPT, N-[N-(3,5-difluorophenacetyl)-L-alanyl]-S-phenylglycine t-butyl ester] was tested, and the “Endogenous activity as percentage of maximal activity achieved by transfection” value (“Endogenous activity as percentage” below) (33 nM DAPT) was 40% and 39.7%, the “cDNAwtC99 required to reach maximal activity” value (shortened to “cDNAwtC99 required”) (33 nM DAPT) was 192 ng/mL and 191.0 ng/mL and the “Endogenous activity as percentage” value (100 nM DAPT) was 72% and 72.5%. The “cDNAwtC99 required” value (100 nM DAPT) was 92.7 ng/mL, the “Endogenous activity as percentage” value (333 nM DAPT) was 92.1% and the “cDNAwtC99 required” value (333 nM DAPT) was 59.8 ng/mL. The “Endogenous activity as percentage” value (500 nM DAPT) was 89.3%, the “cDNAwtC99 required” value (500 nM DAPT) was 39.2 ng/mL and the “Endogenous activity as percentage” value (1000 nM DAPT) was 96.2%. The “cDNAwtC99 required” value (1000 nM DAPT) was 14.0 ng/mL, the “Initial Activity, IA” value (Aβ 1-40 secreted, untransfected HeLa cells, endogenous substrate, activity at inhibitor concentration zero, eqn. 1, six free fit parameters) was 31 ± 4 pM per 10^6 cells and the “Maximal Activity (MA), calculated activation plateau” value [1] was 196 pM per 10^6 cells and 196 ± 80 pM per 10^6 cells. The “Maximal Inhibition, MI” value [1] was 0.5 ± -3.4 pM per 10^6 cells, the EC50 [2] was 72 ± 20 nM and the IC50 [2] was 472 ± 95 nM. For the same molecule, the “Maximal Activity that can be achieved by transfection (Aβ 1-40 secreted)” value (from here on “Maximal Activity that can be achieved”) (33 nM DAPT) was 204.5 pM per 10^6 cells, the “Maximal Activity that can be achieved” value (100 nM DAPT) was 182 pM per 10^6 cells and 182.0 pM per 10^6 cells and the “Maximal Activity that can be achieved” value (333 nM DAPT) was 140.0 pM per 10^6 cells. For the same molecule, the “Maximal Activity that can be achieved” value (500 nM DAPT) was 125.0 pM per 10^6 cells, the “Maximal Activity that can be achieved” value (1000 nM DAPT) was 44.7 pM per 10^6 cells and the “Activation Hill coef.” value [3] was 1.04 ± 0.2. The “Inhibition Hill's coef” value [3] was 2 ± 0.3, the “Maximal Activity, MA” value [3] was 217 ± 110 pM per 10^6 cells and the “Maximal Inhibition, MI” value [3] was -1 ± 0.1 pM per 10^6 cells. For the same molecule, the “Initial Activity, IA” value (HeLa, 0 ng/mL pSG5-cDNAwtC99, eqn. 1, activity at zero DAPT) was 32 ± 3 pM per 10^6 cells, the EC50 [3] was 89 ± 17 nM and the IC50 [3] was 407 ± 34 nM. The “Activation Hill coef.” value [4] was 1.08 ± 0.2, the “Inhibition Hill's coef” value [4] was 2.4 ± 0.3 and the “Maximal Activity, MA” value [4] was 172 ± 90 pM per 10^6 cells. For the same molecule, the “Maximal Inhibition, MI” value [4] was 0.33 ± 0.7 pM per 10^6 cells, the “Initial Activity, IA” value (HeLa, 15 ng/mL pSG5-cDNAwtC99, eqn. 1, activity at zero DAPT) was 41 ± 3 pM per 10^6 cells and the EC50 [4] was 71 ± 21 nM. The IC50 [4] was 588 ± 35 nM, the “Activation Hill coef.” value [5] was 1.0 ± 0.1 and the “Inhibition Hill's coef” value [5] was 2.2 ± 0.4. The “Maximal Activity, MA” value [5] was 205 ± 80 pM per 10^6 cells, the “Maximal Inhibition, MI” value [5] was -0.2 ± 0.1 pM per 10^6 cells and the “Initial Activity, IA” value (HeLa, 25 ng/mL pSG5-cDNAwtC99, eqn. 1, activity at zero DAPT) was 51 ± 5 pM per 10^6 cells. The EC50 [5] was 110 ± 34 nM, the IC50 [5] was 524 ± 71 nM and the “Activation Hill coef.” value [6] was 1.13 ± 0.6. For the same molecule, the “Inhibition Hill's coef” value [6] was 2.3 ± 0.5, the “Maximal Activity, MA” value [6] was 180 ± 145 pM per 10^6 cells and the “Maximal Inhibition, MI” value [6] was 1.2 ± 0.2 pM per 10^6 cells. The “Initial Activity, IA” value (HeLa, 61 ng/mL pSG5-cDNAwtC99, eqn. 1, activity at zero DAPT) was 91 ± 6 pM per 10^6 cells, the EC50 [6] was 107 ± 36 nM and the IC50 [6] was 489 ± 62 nM. For the same molecule, the “Activation Hill coef.” value [7] was 0.92 ± 0.3, the “Inhibition Hill's coef” value [7] was 1.7 ± 0.6 and the “Maximal Activity, MA” value [7] was 170 ± 95 pM per 10^6 cells.
